# Results taken from patent US6569842B2 (Board of Trustees of the University of Illinois, The, priority 2000, dated 2003).
# Read-outs that look alike come from different tables or passages of the source.
# Legend:
# [1] = test system: MEL-2 (melanoma); experiment: Cytotoxicity against cultured MEL-2 cells (SRB); type: cell-based, human; conditions: Homo sapiens, MEL2, 72 h, read-out: ED50 MEL-2
# Method: (§1) Cytotoxicity of the crude extracts and purified compounds was determined in a number of cultured human cancer cell lines. Table 1 sets forth the various types of cancer cells evaluated using Method A. The cells were cultured in appropriate media and under standard conditions. To maintain logarithmic growth, the media were changed 24 hours prior to cytotoxic assays. On the day of the assay, the cells were harvested by trypsinization, counted, diluted in media, and added to 96-well plates containing test compounds dissolved in DMSO. The final DMSO concentration was 0.05%.
# (§2) In each of Methods A-C, the plates were incubated for three days. Following the incubation period, the cells were fixed and stained with sulforhodamine B (SRB) dye. The bound dye was liberated with Tris base, and the OD515 (optical density at 515 nm) was measured on an ELISA reader. The growth of the betulinic acid-treated cells was determined by the OD515 values, and the growth was compared to the OD515 values of treated control cells of Methods A-C. Dose response studies were performed to generate ED50 values. As used herein, the term OD515 is defined as optical density at 515 nm, and the term ED50 is defined as the concentration of a compound required to reduce cell number by 50%.
# [2] = test system: KB (human oral epidermoid carcinoma); experiment: Cytotoxicity against cultured KB cells (SRB); type: cell-based
# Method: as §1, §2
# [3] = test system: LU-1 (lung); experiment: Cytotoxicity against cultured LU-1 cells (SRB); type: cell-based, human; conditions: for IC50: Homo sapiens, Lu1, 72 h, Method A, sample dissolved in DMSO, three days incubation, read-out: ED50 LU-1
# Method: as §1, §2
# [4] = test system: MEL-2 (melanoma); experiment: Cytotoxicity against cultured MEL-2 cells (SRB); type: cell-based, human
# [5] = test system: COL-2 (colon); experiment: Cytotoxicity against cultured COL-2 cells (SRB); type: cell-based, human; conditions: Homo sapiens, Col2, 72 h, read-out: ED50 COL-2
# Method: as §1, §2
# [6] = test system: ZR-75-1 (breast); experiment: Cytotoxicity against cultured ZR-75-1 cells (SRB); type: cell-based, human; conditions: Homo sapiens, ZR-75-1, 72 h, read-out: ED50 ZR 75-1
# Method: as §1, §2
# [7] = test system: A431 (squamous cells); experiment: Cytotoxicity against cultured A431 cells (SRB); type: cell-based, human
# Method: as §1, §2
# [8] = test system: UISO MEL-1 cells; experiment: In vivo study, MEL-1 tumors in athymic mice; conditions: 5, 50 or 250 mg/kg/dose IP betulinic acid/PVP every fourth day, six doses
# Method: In particular, four-week-old athymic mice were injected subcutaneously in the right flank with 5.0×10^8 UISO MEL-1 cells. Drug treatment was initiated on the day following tumor cell injection and continued every fourth day for a total of six doses. […] The mice were weighed, and tumors were measured with a micrometer every third day throughout the study. Treated animals were sacrificed and autopsied on day 41, when the mean tumor volume in the control mice was approximately 0.5 cm^3. The control mice then received six doses of 50 mg/kg every fourth day beginning day 41 and were sacrificed and autopsied on day 71.
# The results with respect to MEL-1 cells were similar to the results with respect to MEL-2 cells.
# [9] = test system: ZR-75-1 (breast); experiment: Cytotoxicity against cultured ZR-75-1 cells (SRB); type: cell-based, human
# [10] = test system: U373 (glioma); experiment: Cytotoxicity against cultured U373 cells (SRB); type: cell-based, human
# [11] = test system: LNCaP (prostate); experiment: Cytotoxicity against cultured LNCaP cells (SRB); type: cell-based, human; conditions: Method A, sample dissolved in DMSO; three days incubation
# Method: as §1, §2
# [12] = test system: COL-2 (colon); experiment: Cytotoxicity against cultured COL-2 cells (SRB); type: cell-based, human; conditions: Method B, sample dissolved in tissue culture media
# [13] = test system: U373 (glioma); experiment: Cytotoxicity against cultured U373 cells (SRB); type: cell-based, human; conditions: Method A, sample dissolved in DMSO; three days incubation
# Method: as §1, §2
# [14] = test system: MEL-3 human melanoma cell line; experiment: Cytotoxicity against cultured MEL-3 cells; type: cell-based; conditions: dose-response study
# Method: as §2
# [15] = mouse, in vivo, 500 mg/kg
# Method: In particular, the data was derived from experiments wherein four week old athymic mice were injected subcutaneously in the right flank with 3.0×10^8 UISO MEL-2 cells. UISO MEL-2 is a cell line derived from metastatic melanoma from human pleural fluid. Drug treatment was initiated on the day following tumor cell injection and continued every fourth day for a total of six doses. […] The mice were weighed, and the tumors measured with a micrometer every other day throughout the study. All animals were sacrificed and autopsied on day 33, when the mean tumor volume in the control animals was approximately one cm^3.
# [16] = test system: LNCaP (prostate); experiment: Cytotoxicity against cultured LNCaP cells (SRB); type: cell-based, human
# [17] = test system: MEL-1 human melanoma cell line; experiment: Cytotoxicity against cultured MEL-1 cells (SRB); type: cell-based
# Method: as §1, §2
# [18] = test system: BC-1 (breast); experiment: Cytotoxicity against cultured BC-1 cells (SRB); type: cell-based, human; conditions: Method B, sample dissolved in tissue culture media
# [19] = test system: human neuroblastoma cell lines; experiment: Cytotoxic activity against neuroblastoma cell lines; type: cell-based
# [20] = test system: BC-1 (breast); experiment: Cytotoxicity against cultured BC-1 cells (SRB); type: cell-based, human; conditions: Homo sapiens, BC1, 72 h, read-out: ED50 BC-1
# Method: as §1
# as §2, with “The growth of the betulinic acid-treated cells was determined by the OD515 values, and the growth was compared to the OD515 values of treated control cells of Methods A-C.” left out
# [21] = 200 and 400 mg/kg doses; cited from earlier work
# [22] = test system: HT-1080 (sarcoma); experiment: Cytotoxicity against cultured HT-1080 cells (SRB); type: cell-based, human; conditions: for IC50: Homo sapiens, HT-1080, 72 h, Method A, sample dissolved in DMSO, three days incubation, read-out: ED50 HT-1080
# Method: as §1, §2
# [23] = test system: MEL-4 human melanoma cell line; experiment: Cytotoxicity against cultured MEL-4 cells (SRB); type: cell-based
# Method: as §1, §2
# [24] = Method A, sample dissolved in DMSO, three days incubation
# [25] = Method B, sample dissolved in tissue culture media
# [26] = Method C, sample dissolved in 5% aqueous bovine serum albumin
structure (smiles),measurement,setting,value
"C=C(C)[C@@H]1CC[C@]2(C(=O)O)CC[C@]3(C)[C@H](CC[C@@H]4[C@@]5(C)CC[C@H](O)C(C)(C)[C@@H]5CC[C@]43C)[C@@H]12 [Betulinic acid, 3β-hydroxy-lup-20 (29)ene-28-oic acid]",IC50,[1]; [24],~2 µg/mL
same,ED50 KB,[2]; [25],>20 µg/mL
same,ED50 KB,[2]; [26],16.6 µg/mL
same,IC50,[3],> 20 µg/mL
same,ED50 Lu1,[3]; [25],7.7 µg/mL
same,ED50 Mel2,[4]; [25],0.9 µg/mL
same,ED50 Mel2,[4]; [26],1.6 µg/mL
same,IC50,[5]; [24],> 20 µg/mL
same,IC50,[6]; [24],> 20 µg/mL
same,ED50 A431,[7]; [24],>20 µg/mL
same,ED50 A431,[7]; [25],12.1 µg/mL
same,ED50 A431,[7]; [26],>20 µg/mL
same,activity against MEL-1 tumors,[8],active
same,ED50 ZA-75-1,[9]; [25],6.4 µg/mL
same,ED50 ZA-75-1,[9]; [26],6.9 µg/mL
same,ED50 U373,[10]; [25],12.1 µg/mL
same,ED50 U373,[10]; [26],18.7 µg/mL
same,ED50 LNCaP,[11],>20 µg/mL
same,ED50 Col2,[12],13.3 µg/mL
same,ED50 U373,[13],>20 µg/mL
same,ED50 MEL-3,[14],3.3 µg/mL
same,acute toxicity and body weight,[15],without causing acute signs of toxicity or a decrease in body weight
same,ED50 LNCaP,[16]; [25],19.3 µg/mL
same,ED50 LNCaP,[16]; [26],16.6 µg/mL
same,ED50 MEL-1,[17]; [24],1.1 µg/mL
same,ED50 Mel1,[17]; [25],0.9 µg/mL
same,ED50 BC1,[18],11.2 µg/mL
same,cytotoxic activity against human neuroblastoma cell lines,[19],excellent cytotoxic activity
same,IC50,[20]; [24],> 20 µg/mL
same,activity in Hippocratic screen,[21],inactive
same,IC50,[22],> 20 µg/mL
same,ED50 HT,[22]; [25],11.3 µg/mL
same,ED50 HT,[22]; [26],10.0 µg/mL
same,ED50 MEL-4,[23]; [24],4.8 µg/mL
same,ED50 Mel4,[23]; [25],1.6 µg/mL
CC[C@@]1(O)C(=O)OCc2c1cc1n(c2=O)Cc2cc3ccccc3nc2-1 [Camptothecin],IC50,[1]; [24],0.02 µg/mL
same,IC50,[5]; [24],0.005 µg/mL
same,IC50,[6]; [24],0.001 µg/mL
same,ED50 LNCaP,[11],0.006 µg/mL
same,IC50,[20]; [24],0.07 µg/mL
same,IC50,[22],0.01 µg/mL
Cc1c2ccncc2c(C)c2c1[nH]c1ccccc12 [Ellipticine],IC50,[1]; [24],0.9 µg/mL
same,ED50 KB,[2]; [24],0.04 µg/mL
same,IC50,[3],0.02 µg/mL
same,IC50,[5]; [24],0.3 µg/mL
same,IC50,[6]; [24],0.9 µg/mL
same,ED50 A431,[7]; [24],0.5 µg/mL
same,ED50 LNCaP,[11],0.8 µg/mL
same,ED50 U373,[13],1.6 µg/mL
same,IC50,[20]; [24],0.2 µg/mL
same,IC50,[22],1.8 µg/mL
COC(=O)C[C@](O)(CCCC(C)(C)O)C(=O)O[C@@H]1C(OC)=C[C@]23CCCN2CCc2cc4c(cc2[C@H]13)OCO4 [Homoharringtonine],IC50,[1]; [24],0.04 µg/mL
same,IC50,[3],0.03 µg/mL
same,IC50,[5]; [24],0.1 µg/mL
same,IC50,[6]; [24],0.06 µg/mL
same,ED50 A431,[7]; [24],0.02 µg/mL
same,ED50 LNCaP,[11],0.03 µg/mL
same,ED50 U373,[13],0.2 µg/mL
same,IC50,[20]; [24],0.03 µg/mL
same,IC50,[22],0.01 µg/mL
COc1cc([C@@H]2c3cc4c(cc3[C@H](O)[C@H]3COC(=O)[C@H]23)OCO4)cc(OC)c1OC [Podophyllotoxin],IC50,[1],0.003 µg/mL
same,ED50 KB,[2]; [24],0.08 µg/mL
same,IC50,[5],0.005 µg/mL
same,IC50,[6],0.4 µg/mL
same,ED50 A431,[7]; [24],0.03 µg/mL
same,ED50 LNCaP,[11],0.04 µg/mL
same,ED50 U373,[13],0.004 µg/mL
same,IC50,[20],0.03 µg/mL
